Measured values from ChEMBL document CHEMBL1201862, “PubChem BioAssay data set” (2004).
Several values for one entry are separate records, joined by “and”; a condition that tells them apart may be missing. Equal values may be shown once. Activity calls are given as the source filed them.

How the values were obtained:
Estrogen receptor = molecular target: T1, Estrogen receptor (Homo sapiens, UniProt P03372);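 note: potency for inhibiting coactivator peptide recruitment to the receptor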
T1 sequence (P03372 whole entry): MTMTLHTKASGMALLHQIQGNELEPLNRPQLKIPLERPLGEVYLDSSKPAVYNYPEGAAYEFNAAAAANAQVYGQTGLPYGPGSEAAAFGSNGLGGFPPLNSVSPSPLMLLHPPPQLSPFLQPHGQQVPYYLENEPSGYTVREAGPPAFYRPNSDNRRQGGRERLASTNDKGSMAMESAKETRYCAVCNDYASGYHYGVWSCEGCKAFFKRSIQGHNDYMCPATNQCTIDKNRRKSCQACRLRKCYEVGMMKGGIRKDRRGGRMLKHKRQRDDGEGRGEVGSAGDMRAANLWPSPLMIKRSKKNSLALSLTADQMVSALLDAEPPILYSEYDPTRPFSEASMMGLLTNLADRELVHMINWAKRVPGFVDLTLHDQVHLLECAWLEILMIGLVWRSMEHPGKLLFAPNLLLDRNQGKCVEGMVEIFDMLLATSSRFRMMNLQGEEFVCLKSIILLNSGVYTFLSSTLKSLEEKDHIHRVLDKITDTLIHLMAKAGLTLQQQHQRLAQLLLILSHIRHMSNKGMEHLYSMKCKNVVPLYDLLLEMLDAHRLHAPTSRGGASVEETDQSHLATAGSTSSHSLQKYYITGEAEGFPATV

[1] = viability of PTEN-deleted HCT116 cells – cell-based, HCT116 PTEN knockout, dose response (AID 1047); format: functional;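 note: HCT116 colon tumor cells with PTEN knocked out; cells exposed to compound for 60 hours before readout; potency for loss of cell viability measured by luminescence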
[2] = viability of HCT116 lacking mutant beta-catenin – cell-based, human colon tumor, dose response (AID 1045); format: functional;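 note: HCT116 colon tumor cells with beta catenin knocked out; cells exposed to compound for 60 hours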
Coagulation factor XII = molecular target: T2, Coagulation factor XII (Homo sapiens, UniProt P00748); format: functional;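 note: activated factor XIIa alpha cleaving a fluorogenic AMC peptide substrate; inhibitor potency from loss of enzyme activity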
T2 sequence (P00748 whole entry): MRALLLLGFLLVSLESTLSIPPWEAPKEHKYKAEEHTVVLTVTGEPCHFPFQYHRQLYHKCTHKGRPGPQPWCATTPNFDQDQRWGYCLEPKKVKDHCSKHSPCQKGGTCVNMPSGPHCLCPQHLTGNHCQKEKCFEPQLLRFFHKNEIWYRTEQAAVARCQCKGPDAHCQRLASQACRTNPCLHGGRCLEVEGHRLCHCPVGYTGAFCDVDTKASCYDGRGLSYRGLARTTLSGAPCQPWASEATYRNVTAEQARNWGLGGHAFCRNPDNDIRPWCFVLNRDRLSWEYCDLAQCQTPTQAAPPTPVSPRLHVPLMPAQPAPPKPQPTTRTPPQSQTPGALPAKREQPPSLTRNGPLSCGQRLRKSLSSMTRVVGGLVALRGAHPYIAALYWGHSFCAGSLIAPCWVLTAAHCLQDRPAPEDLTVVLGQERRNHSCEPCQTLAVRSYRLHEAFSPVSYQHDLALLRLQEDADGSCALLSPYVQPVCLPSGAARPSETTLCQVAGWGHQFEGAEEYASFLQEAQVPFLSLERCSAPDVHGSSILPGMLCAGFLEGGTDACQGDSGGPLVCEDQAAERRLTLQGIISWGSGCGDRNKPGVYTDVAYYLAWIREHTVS

[3] = THP-1 cell cytotoxicity, dose response, cytotoxicity control for non-replicating M. tuberculosis project (AID 489025); format: functional
[4] = molecular target: T3, Ubiquitin-conjugating enzyme E2 N (Homo sapiens, UniProt P61088); format: functional;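 note: Dose-response confirmation in a TR-FRET assay detecting UBC13-driven polyubiquitin chain formation, inhibition measured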
T3 sequence (P61088 whole entry): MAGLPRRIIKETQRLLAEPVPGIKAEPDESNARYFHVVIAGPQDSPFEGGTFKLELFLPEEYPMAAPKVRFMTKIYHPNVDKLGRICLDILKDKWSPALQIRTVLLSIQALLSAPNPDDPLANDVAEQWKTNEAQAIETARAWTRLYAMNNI

[5] = Vero E6 cell cytotoxicity, dose response, cytotoxicity control for non-replicating M. tuberculosis project, secondary assay (AID 492998); format: functional, VeroE6; conditions: Vero C1008
cells = format: functional
A-375 = experiment: proliferation inhibition in MITF-low A375 cells – cell-based, cherry-pick samples, set 2, counter-screen for MITF modulator project, dose response (AID 540335); format: functional; conditions: Homo sapiens
HEK293 [6] = experiment: cells; conditions: Homo sapiens
HEK293 [7] = experiment: cells; conditions: Homo sapiens; remark: listed apart in the source
[8] = molecular target: E3 ubiquitin-protein ligase Mdm2 (Homo sapiens, UniProt Q00987); experiment: MDM2-luc reporter signal enhancers, multi-concentration potency testing, MDM2 ubiquitin-protein ligase inhibitor program, whole-cell format, luminescence detection, 384-well microplate (AID 1394); format: functional;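 note: MDM2 E3 inhibitors raise luminescence so EC50 is for signal enhancement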
E3 ubiquitin-protein ligase Mdm2, sequence (Q00987 whole entry): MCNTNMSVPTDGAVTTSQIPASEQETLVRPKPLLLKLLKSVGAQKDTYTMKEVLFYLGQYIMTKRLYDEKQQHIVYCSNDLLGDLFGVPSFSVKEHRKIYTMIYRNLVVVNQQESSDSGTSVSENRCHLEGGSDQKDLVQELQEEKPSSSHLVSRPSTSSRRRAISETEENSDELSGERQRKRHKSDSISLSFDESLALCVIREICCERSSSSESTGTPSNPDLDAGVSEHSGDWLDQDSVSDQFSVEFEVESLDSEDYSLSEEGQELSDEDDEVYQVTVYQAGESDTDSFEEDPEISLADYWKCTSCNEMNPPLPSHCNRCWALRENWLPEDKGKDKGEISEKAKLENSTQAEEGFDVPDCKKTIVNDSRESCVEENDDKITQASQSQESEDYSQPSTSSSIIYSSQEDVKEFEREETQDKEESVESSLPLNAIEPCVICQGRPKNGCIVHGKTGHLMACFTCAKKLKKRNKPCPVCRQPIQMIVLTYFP

[9] = molecular target: T4, Microphthalmia-associated transcription factor (Homo sapiens, UniProt O75030); experiment: reducers of TRPM1 reporter luminescence, concentration series – cell-based, SK-MEL-5, cherry-picked, set 3, MITF inhibitor project, dose response (AID 493073); format: functional;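 note: SK-MEL-5 melanoma cells with luciferase driven by the MITF target TRPM1 promoter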
T4 sequence (O75030 whole entry): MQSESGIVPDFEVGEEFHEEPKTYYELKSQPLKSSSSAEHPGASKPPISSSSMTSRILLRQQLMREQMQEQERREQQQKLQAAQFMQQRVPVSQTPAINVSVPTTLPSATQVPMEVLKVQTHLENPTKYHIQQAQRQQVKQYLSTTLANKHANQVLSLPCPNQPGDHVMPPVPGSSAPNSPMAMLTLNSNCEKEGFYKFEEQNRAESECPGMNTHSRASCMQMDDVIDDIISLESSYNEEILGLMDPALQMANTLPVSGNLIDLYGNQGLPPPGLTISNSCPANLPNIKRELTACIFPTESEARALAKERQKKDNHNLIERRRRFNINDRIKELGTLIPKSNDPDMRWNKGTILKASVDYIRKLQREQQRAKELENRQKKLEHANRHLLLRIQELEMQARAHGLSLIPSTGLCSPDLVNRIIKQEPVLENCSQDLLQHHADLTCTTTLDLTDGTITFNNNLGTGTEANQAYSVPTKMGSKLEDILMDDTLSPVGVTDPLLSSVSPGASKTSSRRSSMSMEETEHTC

[10] = molecular target: T5, Mannose-6-phosphate isomerase (Homo sapiens, UniProt P34949); experiment: phosphomannose isomerase inhibition – biochemical, fluorescence intensity, confirmation (AID 1535)
T5 sequence (P34949 whole entry): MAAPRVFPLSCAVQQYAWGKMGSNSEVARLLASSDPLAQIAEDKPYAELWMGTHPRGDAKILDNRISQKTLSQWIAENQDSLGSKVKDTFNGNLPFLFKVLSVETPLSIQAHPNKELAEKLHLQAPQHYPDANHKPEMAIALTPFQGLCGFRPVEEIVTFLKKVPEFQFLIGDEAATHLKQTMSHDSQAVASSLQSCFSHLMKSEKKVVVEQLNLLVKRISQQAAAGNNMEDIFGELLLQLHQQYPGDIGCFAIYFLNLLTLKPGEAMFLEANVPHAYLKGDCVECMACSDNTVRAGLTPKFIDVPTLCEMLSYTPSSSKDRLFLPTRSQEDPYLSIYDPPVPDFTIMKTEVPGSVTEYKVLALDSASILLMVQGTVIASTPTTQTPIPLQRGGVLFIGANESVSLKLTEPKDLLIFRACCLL

Phosphomannomutase 2 = molecular target: T6, Phosphomannomutase 2 (Homo sapiens, UniProt O15305); experiment: Counter screen SAR assay for PMM2 inhibitors via a fluorescence intensity assay. [Related pubchem assays (depositor defined):AID1545, AID1574]
T6 sequence (O15305 whole entry): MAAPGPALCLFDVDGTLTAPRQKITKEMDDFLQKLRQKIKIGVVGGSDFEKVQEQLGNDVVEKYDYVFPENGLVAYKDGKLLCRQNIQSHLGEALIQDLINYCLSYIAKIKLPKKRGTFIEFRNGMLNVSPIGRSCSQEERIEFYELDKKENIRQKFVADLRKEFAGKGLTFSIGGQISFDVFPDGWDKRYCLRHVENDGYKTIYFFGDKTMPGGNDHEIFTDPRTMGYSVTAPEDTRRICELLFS

14-3-3 protein gamma = molecular target: T7, 14-3-3 protein gamma (Homo sapiens, UniProt P61981); experiment: modulators of 14-3-3 gamma client binding – dose response (AID 711); format: functional
T7 sequence (P61981 whole entry): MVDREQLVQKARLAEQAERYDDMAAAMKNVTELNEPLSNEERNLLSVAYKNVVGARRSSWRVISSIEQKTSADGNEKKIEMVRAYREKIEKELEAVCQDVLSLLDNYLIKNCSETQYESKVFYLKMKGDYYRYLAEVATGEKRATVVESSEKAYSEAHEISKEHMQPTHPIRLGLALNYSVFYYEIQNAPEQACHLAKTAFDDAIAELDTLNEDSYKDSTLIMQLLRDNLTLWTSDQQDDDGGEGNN

ORF 73 = molecular target: T8, ORF 73 (Human herpesvirus 8, UniProt O40947); experiment: KSHV LANA DNA-binding disruption – biochemical, fluorescence polarization, cherry-picked samples, dose response (AID 504725); design: species or system Human gammaherpesvirus 8;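 note: fluorescence polarization of a labeled DNA duplex reporting LANA DNA binding; potency is for inhibitors that block LANA binding to the DNA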
T8 sequence (O40947 whole entry): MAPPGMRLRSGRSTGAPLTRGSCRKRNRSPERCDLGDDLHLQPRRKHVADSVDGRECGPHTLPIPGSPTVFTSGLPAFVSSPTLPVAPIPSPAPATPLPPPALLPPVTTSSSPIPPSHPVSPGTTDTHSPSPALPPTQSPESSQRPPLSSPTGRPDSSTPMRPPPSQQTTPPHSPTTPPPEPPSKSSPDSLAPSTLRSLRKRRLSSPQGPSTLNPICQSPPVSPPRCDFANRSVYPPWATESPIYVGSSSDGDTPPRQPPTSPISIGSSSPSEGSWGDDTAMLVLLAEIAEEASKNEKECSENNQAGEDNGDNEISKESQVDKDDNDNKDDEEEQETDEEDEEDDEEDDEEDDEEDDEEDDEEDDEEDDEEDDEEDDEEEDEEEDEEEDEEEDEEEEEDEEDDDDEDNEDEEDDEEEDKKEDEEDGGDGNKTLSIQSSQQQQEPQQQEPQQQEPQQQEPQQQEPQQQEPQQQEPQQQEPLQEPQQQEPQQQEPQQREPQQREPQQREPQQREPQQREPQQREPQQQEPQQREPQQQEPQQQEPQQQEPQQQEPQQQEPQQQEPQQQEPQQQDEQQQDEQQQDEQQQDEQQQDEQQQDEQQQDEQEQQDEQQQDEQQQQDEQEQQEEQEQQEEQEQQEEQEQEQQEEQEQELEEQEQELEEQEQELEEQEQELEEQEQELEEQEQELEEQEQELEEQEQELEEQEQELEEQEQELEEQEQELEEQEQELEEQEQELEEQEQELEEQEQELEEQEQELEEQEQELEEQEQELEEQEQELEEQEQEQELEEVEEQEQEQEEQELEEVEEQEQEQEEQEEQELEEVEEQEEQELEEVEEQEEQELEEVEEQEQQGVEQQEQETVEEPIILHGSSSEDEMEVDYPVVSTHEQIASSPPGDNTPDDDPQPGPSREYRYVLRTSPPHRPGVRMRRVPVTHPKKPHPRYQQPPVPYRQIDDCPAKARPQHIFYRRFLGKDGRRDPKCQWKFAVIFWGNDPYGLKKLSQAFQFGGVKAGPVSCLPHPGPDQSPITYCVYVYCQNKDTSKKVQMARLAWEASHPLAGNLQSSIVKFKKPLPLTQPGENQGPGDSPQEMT

Keap1/Nrf2 = Keap1/Nrf2 (Homo sapiens, UniProt Q14145); experiment: disruptors of Keap1 binding to Nrf2 peptide – biochemical, fluorescence polarization, cherry-picked samples, dose response (AID 588683)
Keap1/Nrf2, sequence (Q16236 whole entry, the tested form may be a part): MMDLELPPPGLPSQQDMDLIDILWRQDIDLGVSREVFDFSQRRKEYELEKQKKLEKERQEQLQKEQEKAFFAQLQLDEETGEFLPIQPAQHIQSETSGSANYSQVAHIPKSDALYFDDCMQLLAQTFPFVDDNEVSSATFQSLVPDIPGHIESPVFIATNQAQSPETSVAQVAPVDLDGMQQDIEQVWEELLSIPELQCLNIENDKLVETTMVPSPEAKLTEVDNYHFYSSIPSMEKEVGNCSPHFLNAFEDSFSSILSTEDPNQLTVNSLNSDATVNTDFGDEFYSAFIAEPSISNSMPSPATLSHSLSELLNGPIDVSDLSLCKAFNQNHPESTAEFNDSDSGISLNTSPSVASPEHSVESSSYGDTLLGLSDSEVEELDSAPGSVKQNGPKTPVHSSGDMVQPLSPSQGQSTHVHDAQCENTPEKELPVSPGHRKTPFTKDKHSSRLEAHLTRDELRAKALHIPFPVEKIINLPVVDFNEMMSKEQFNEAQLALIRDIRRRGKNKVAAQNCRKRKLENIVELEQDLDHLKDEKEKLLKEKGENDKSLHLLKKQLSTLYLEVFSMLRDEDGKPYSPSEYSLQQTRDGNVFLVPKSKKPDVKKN
Keap1/Nrf2, sequence (Q14145 whole entry, the tested form may be a part): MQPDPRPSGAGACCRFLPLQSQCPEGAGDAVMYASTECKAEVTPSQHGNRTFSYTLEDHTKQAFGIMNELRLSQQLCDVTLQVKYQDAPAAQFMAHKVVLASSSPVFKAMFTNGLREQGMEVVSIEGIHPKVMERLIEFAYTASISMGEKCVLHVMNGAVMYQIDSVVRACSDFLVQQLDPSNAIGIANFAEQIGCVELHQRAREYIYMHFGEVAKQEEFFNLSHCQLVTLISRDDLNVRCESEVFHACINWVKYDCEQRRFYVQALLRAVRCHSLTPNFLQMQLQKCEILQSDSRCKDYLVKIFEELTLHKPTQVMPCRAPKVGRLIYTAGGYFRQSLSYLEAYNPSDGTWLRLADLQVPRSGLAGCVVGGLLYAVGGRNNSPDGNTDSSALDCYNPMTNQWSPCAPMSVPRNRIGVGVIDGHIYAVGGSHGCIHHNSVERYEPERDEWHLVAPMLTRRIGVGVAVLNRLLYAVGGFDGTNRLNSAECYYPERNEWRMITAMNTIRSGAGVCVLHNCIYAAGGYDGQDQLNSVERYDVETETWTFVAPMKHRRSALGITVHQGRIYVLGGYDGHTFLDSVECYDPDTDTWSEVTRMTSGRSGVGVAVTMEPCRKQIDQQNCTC

[11] = blockers of HIV-1 envelope-mediated cell-cell fusion – cherry-pick, dose response (AID 652057); format: functional, cell-based
[12] = viability loss in CEM21 cells – cell-based, CellTiter-Glo luminescence, cherry-picked, cytotoxicity control for viral fusion inhibitor project, dose response (AID 652042); format: functional;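 note: potency for signal decrease meaning cytotoxicity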
[13] = blockers of HIV-1 ZM109 envelope-driven cell-cell fusion – HeLa effector, CEM target cells, luciferase, cherry-pick, dose response (AID 652058); format: functional, cell-based;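 note: luciferase signal from HIV-1 Env mediated cell-cell fusion of effector and target cells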
[14] = off-target signal loss in HeLa-CEM21 co-culture – HeLa F-luc CTL cells, cherry-picked, counter-screen for HIV-1 Env fusion inhibitor project, dose response (AID 652040); format: functional, cell-based;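 note: potency for signal decrease marking cytotoxic or nonspecific inhibition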
[15] = HIV-1 AD8 envelope cell-cell fusion blockers – cherry-pick, dose response (AID 652062); format: functional, cell-based;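 note: luciferase signal from cell-cell fusion driven by HIV-1 clade B AD8 Env; potency is for inhibitors of fusion seen as a drop in luminescence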

With `Cc1ccc(N/C=C2/C(=O)N(c3ccc4c(c3)OCO4)C(=O)c3ccccc32)cc1` the IC50 (Estrogen receptor) was 19.8 µM (active), the EC50 [1] was 8.15 µM (active) and the EC50 [2] was 9.32 µM (active). The IC50 (Coagulation factor XII) was > 50 µM (inactive).

For `Cc1ccc2nc(N(CCCN(C)C)C(=O)c3ccc4c(c3)CCCC4)sc2c1`, the EC50 [1] was 15.2 µM (active), the EC50 [2] was 12.1 µM (active) and the CC50 [3] was 16.5 µM (active). For the same molecule, the IC50 [4] was > 20 µM (inactive), the CC50 [5] was > 20 µM (active) and the IC50 (cells) was 22.8 µM (active). The AC50 (A-375) was 19.7 µM (active).

In the case of `COc1ccc(C2CC(C(F)(F)F)n3ncc(C(=O)NCC4CCCO4)c3N2)cc1OC` (centres undefined), the EC50 (HEK293 [6]) is reported as > 59.6 µM (inactive) and the EC50 (HEK293 [7]) is reported as > 59.6 µM (inactive).

For `O=C1NC(=O)N(CCc2ccc(F)cc2)C(=O)/C1=C\C=C\c1ccccc1`, the EC50 [8] was 0.13 µM (not active), the AC50 [9] was 8.26 µM (active) and the AC50 (A-375) was 33.6 µM (active).

In the case of `Clc1nss/c1=N\c1cccnc1`, the IC50 [10] is reported as 16.7 µM (active) and 13.2 µM (active) and the IC50 (Phosphomannomutase 2) is reported as > 65.8 µM (active).

For `O=C(O)c1ccccc1C1=Nc2ccc(O)cc2Oc2cc(O)ccc21`, the IC50 (14-3-3 protein gamma) was 5.02 µM (active), the AC50 (ORF 73) was 5.76 µM (active) and the AC50 (Keap1/Nrf2) was 4.97 µM (active).

For `c1ccc2c(c1)CCCN2Cc1nnnn1CC1CCCO1` (centres undefined), the AC50 (Keap1/Nrf2) was > 52 µM (inactive).

With `COc1ccc(CC(N)c2csc(NC(=O)Nc3ccccc3Cc3ccccc3)n2)cc1` (centres undefined) the AC50 [11] was < 0.26 µM (active), the AC50 [12] was 12.4 µM (active) and the AC50 [13] was 0.304 µM (active). The AC50 [14] was 0.381 µM (active), the AC50 [15] was 0.832 µM (active) and the EC50 (HEK293 [6]) was > 59.7 µM (inactive). The EC50 (HEK293 [7]) was > 59.7 µM (inactive).
